From US20100210735A1, “Modulating the Activity of Nuclear Receptors in Order to Treat Hypoxia-Related Disorders” (UNIVERSITY OF FLORIDA RESEARCH FOUNDATION, INC., priority 2007, published 2010)
“Also recorded” adds a separate entry of the source.

Legend:
[1] = tested on: HIF-dependent reporter (HRE-Luc); test: HIF-dependent luciferase reporter (HRE-Luc) assay in SKBR3 cells; assay type: cell-based, human; details: DP (100 uM), DES (50 uM) or 4HT (10 uM)
Protocol: All human cancer cells were maintained in the following basal media (Invitrogen) supplemented with 10% fetal bovine serum: breast cancer cell line MDA-MB-435 in DMEM/F12, melanoma WM266 cells in McCoy's 5A, breast cancer SKBr3 in DMEM. […] The antibiotic G418 was added in the medium (800 ug/mL) for selection of stable dnERR transfectants. Anaerobic culture was achieved using GasPak Pouch System (BD Biosciences). The HIF-dependent reporter HRE-Luc was generated by inserting the two copies of synthetic HRE from PGK1 into a pGL3 luciferase vector. (Promega) Epo-Luc and PGK1-Luc were created by cloning the PCR-amplified HIF-dependent enhancer and promoter regions of Epo and PGK1, respectively, Full-length EST clones encoding ERR-α, -β, -γ, HIF-1α, -2α, -1β were used for in vitro translation (Promega TNT kit), production of GST fusions by cloning into the pGEX vector, and mammalian expression by cloning into modified pcDNA3 vectors with Flag or HA epitope tags. ERR Deletion mutants were generated by PCR. dnERR was constructed by PCR amplification of ERRβ DBD and Engrailed repression domain, followed by a three-way ligation into pcDNA3. Anti-Flag, -HA, -ERRα, and -HIF1α antibodies were obtained from Sigma, Covance, Upstate, and BD Biosciences and Novus, respectively.

ERRγ-HIF association = ERRγ-HIF association (Homo sapiens, UniProt P62508); details: DES (50 μM) or 4HT (10 μM); GST pulldown
Protocol: In vitro translated HIF proteins were mixed with GST or GST-ERR fusions and assayed for binding.
All procedures followed standard molecular biology techniques. […] For GST binding and IP, we used the following binding buffer (20 mM Tris, pH7.5, 150 mM NaCl, 0.5% NP-40, and protease inhibitor cocktail (Roche)). […] In later experiments, we added proteasome inhibitor MG132 (10 uM) into the buffer.
We examined whether mammalian HIF and ERR proteins interact with each other in vitro by the common glutathione S-transferase (GST) pulldown assay. We fused full-length cDNAs of ERRα, β, and γ to GST and generated fusion proteins in bacteria. We assayed them for binding to in vitro translated full-length HIF1α, HIF2α, and HIF1β.
These compounds were tested to determine whether they might interfere with the ERR-HT interaction.

ERRs (ERRα, ERRβ, ERRγ) = details: literature (Tremblay et al, 2001; Ariazi and Jordan, 2006); cited from earlier work
[2] = tested on: tumor angiogenesis in MDA-MB-435 xenograft; test: CD34 immunostaining of tumor xenografts for blood vessel density; assay type: in vivo, mice; details: 750 μg DES daily, oral, after 3 weeks of treatment
Protocol: Tumor transplants were processed and subjected to CD34 immunostaining for blood vessels (brown staining). […] Scale bars, 65 μm. […] Microvessel density was determined by counting the number of CD34 positive blood vessels from four randomly chosen visual fields from each group of tumors. The average number in the fields was taken as the mean of vessel density of the group. Tumors were dissected at time of necropsy, weighed, and fixed in 4% paraformaldehyde in PBS overnight. Samples were dehydrated in 70% ethanol, paraffin embedded, and sectioned ([…]). Deparaffinized sections were stained for CD34 to assess blood vessel density. Briefly, samples were microwaved in sodium citrate (pH 6) for 20 min. for antigen retrieval, and treated with 3% H2O2 at room temperature for 20 min. to quench endogenous peroxidase activity. Sections were then blocked in 1.5% rabbit serum and incubated with rat anti-mouse CD34 antibody (1:100 dilution, clone MEC14.7, BioLegend), followed by biotinylated rabbit anti-rat IgG (1:200 dilution; Vector Laboratories). Detection was done with avidin-biotin-HRP complex (Vector laboratories) and di-aminobenzidin as chromogen. […] As angiogenesis is a key part of hypoxic response and is required to support tumor growth beyond a certain threshold size, we assessed tumor vascularization by performing immunohistochemical staining using anti-CD34 antibody. […]

[3] = tested on: MDA-MB-435 breast cancer xenograft; test: Tumor xenograft experiment, human MDA-MB-435 breast cancer cells in SCID mice; assay type: in vivo; details: 750 μg DES daily, oral
Protocol: Tumor volume was measured weekly.
Tumor xenografts were harvested at time of necropsy (after 3 weeks of treatment) and weighed. […] Scale Bars represent average tumor weight.
MDA-MB-435 cells (5×10^6) were resuspended in a mixture of 100 uL of PBS and Matrigel (BD Biosciences, Bedford, Mass.; 2:1 ratio), and injected subcutaneously into the fourth mammary gland fat pad of 6- to 8-week-old female severe combined immunodeficient (SCID) mice. […] The mice bearing tumor xenografts were randomly divided into two groups. […] Tumors were serially measured weekly with a ruler and the tumor volumes were calculated with the following formula: volume (mm^3)=width^2× length/2. After 3 weeks of treatment, the mice were euthanized. All animal studies were approved by the Institutional Animal Care and Use Committee (IACUC) at the University of Florida.
At the end of treatment, tumors were excised and analyzed.

[4] = tested on: hypoxic genes (VEGF, PGK1, LDHA, Eno1, Glut1) in MDA-MB-435 cells; test: Northern blot of hypoxic gene expression in MDA-MB-435 breast cancer cells; assay type: cell-based, human; details: severe hypoxia, DES (50 uM)
Source text: (§1) For Northern blot analysis, nylon membranes carrying total RNA samples were hybridized with probes made from cDNA fragments encoding for VEGF, PGK1, lactate dehydrogenase A(LDHA), Enolase 1 (Eno1), and Glucose transporter 1 (Glut1). The 18s rRNA and β-actin served as loading controls.
All human cancer cells were maintained in the following basal media (Invitrogen) supplemented with 10% fetal bovine serum: breast cancer cell line MDA-MB-435 in DMEM/F12, melanoma WM266 cells in McCoy's 5A, breast cancer SKBr3 in DMEM. […] The antibiotic G418 was added in the medium (800 ug/mL) for selection of stable dnERR transfectants. Anaerobic culture was achieved using GasPak Pouch System (BD Biosciences).
All procedures followed standard molecular biology techniques. […] HIFα was not stable.
The HIF-mediated hypoxic response is defined by transcriptional activation of many hypoxic genes. We asked whether inhibition of ERR was capable of blocking hypoxic-induced transcription of endogenous genes.

pregnant female mice = details: DES 500 μg/mouse; literature (Tremblay et al, 2001); cited from earlier work
[5] = tested on: hypoxic genes (VEGF, glycolytic enzymes) in SKBR3 cells; test: Northern blot of hypoxic gene expression in SKBR3 breast cancer cells; assay type: cell-based, human; details: DP (100 uM), DES (50 uM)
Source text: For Northern blot analysis, nylon membranes carrying total RNA samples were hybridized with probes made from cDNA fragments encoding for VEGF, PGK1, lactate dehydrogenase A(LDHA), Enolase 1 (Eno1), and Glucose transporter 1 (Glut1). The 18s rRNA and β-actin served as loading controls. […] All human cancer cells were maintained in the following basal media (Invitrogen) supplemented with 10% fetal bovine serum: breast cancer cell line MDA-MB-435 in DMEM/F12, melanoma WM266 cells in McCoy's 5A, breast cancer SKBr3 in DMEM. […] The antibiotic G418 was added in the medium (800 ug/mL) for selection of stable dnERR transfectants. Anaerobic culture was achieved using GasPak Pouch System (BD Biosciences). All procedures followed standard molecular biology techniques. […] The HIF-mediated hypoxic response is defined by transcriptional activation of many hypoxic genes.

HIF1α = test: Western blot analysis for HIF1α in SKBR3 cells; assay type: cell-based, human; details: DP and DES
Source text: HIF1α was detected with anti-HIF1α antibody. The same blot was reprobed with an antitubulin antibody. Tubulin served as a loading control. All procedures followed standard molecular biology techniques.

[6] = tested on: hypoxic genes in A549 lung cancer cells; test: Hypoxic gene expression in A549 lung cancer cells; assay type: cell-based, human; details: A549 lung cancer cells treated with DP and RES
Source text: as §1

ERRγ-HIF association, sequence (P62508 whole entry): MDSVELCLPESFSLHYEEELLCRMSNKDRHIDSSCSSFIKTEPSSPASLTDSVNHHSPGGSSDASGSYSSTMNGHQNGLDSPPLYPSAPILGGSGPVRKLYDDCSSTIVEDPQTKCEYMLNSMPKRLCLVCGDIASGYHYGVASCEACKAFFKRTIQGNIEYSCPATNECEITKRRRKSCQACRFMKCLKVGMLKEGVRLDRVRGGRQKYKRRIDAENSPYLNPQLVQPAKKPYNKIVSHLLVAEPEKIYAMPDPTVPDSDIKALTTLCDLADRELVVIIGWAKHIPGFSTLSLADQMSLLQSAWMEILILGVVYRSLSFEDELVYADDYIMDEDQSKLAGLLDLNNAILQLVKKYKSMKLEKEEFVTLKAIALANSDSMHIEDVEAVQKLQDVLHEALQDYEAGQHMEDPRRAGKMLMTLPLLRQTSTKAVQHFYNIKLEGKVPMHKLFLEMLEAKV
ERRγ-HIF association, sequence (Q16665 whole entry partner): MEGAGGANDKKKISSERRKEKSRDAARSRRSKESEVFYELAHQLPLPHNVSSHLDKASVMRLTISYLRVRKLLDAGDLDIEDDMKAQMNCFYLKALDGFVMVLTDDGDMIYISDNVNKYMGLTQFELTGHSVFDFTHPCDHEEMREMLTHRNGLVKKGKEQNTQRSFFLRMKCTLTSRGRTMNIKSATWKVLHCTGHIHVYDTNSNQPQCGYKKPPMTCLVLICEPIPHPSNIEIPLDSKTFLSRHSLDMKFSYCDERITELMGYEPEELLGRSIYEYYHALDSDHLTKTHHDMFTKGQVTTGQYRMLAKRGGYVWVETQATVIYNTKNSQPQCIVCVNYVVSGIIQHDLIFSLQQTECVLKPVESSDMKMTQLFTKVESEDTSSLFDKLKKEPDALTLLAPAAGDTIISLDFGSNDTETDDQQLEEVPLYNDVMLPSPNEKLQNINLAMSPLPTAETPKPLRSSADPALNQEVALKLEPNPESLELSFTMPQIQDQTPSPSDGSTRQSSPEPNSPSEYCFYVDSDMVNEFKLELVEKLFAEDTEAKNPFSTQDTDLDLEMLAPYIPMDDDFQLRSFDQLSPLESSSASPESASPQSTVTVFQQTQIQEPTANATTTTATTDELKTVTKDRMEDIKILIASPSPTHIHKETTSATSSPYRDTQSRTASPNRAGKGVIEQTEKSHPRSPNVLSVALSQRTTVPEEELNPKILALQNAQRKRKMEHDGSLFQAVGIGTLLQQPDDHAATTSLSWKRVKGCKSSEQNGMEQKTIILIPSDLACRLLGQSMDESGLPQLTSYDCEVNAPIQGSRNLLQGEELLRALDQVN
ERRγ-HIF association, sequence (P27540 whole entry partner): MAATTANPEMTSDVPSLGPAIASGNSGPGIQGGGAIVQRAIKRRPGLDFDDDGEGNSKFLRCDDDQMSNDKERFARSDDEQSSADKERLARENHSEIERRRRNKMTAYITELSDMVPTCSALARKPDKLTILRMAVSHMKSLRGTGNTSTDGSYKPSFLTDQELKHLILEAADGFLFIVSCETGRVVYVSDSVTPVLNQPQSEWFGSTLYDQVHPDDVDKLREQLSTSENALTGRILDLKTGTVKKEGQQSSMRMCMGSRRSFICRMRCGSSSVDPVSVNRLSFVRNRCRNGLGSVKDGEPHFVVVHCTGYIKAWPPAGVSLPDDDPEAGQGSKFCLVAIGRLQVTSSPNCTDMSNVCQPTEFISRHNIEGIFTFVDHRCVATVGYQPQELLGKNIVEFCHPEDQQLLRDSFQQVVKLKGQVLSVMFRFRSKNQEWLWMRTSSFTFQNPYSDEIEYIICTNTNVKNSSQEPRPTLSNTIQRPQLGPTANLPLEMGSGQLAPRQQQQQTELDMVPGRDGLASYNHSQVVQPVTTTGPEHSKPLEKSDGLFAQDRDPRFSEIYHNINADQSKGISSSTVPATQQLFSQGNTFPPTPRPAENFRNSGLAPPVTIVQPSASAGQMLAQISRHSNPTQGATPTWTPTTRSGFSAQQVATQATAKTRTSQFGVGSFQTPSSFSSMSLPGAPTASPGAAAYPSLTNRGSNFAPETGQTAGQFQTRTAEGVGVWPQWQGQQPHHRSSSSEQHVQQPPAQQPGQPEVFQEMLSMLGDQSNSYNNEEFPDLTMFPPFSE

effect on ERRγ-HIF association (ERRγ-HIF association)	Compound	activation of the HIF-dependent reporter by DP-induced HIF stabilization [1]	activity on ERRs / ERR-coactivator interaction (ERRs (ERRα, ERRβ, ERRγ))	micro vascular density in tumors (CD34 positive blood vessels) [2]	tumor volumes and growth rate versus vehicle-treated control ([3]; 3 weeks, SCID mice)	tumor xenograft growth upon treatment ([3]; SCID mice)	tumor weight at end of treatment versus vehicle-treated mice ([3]; after 3 weeks of treatment)	transcriptional induction of HIF target genes [4]	effect in pregnant female mice (pregnant female mice)	transcriptional induction of HIF target genes [5]	HIF1α protein stabilization by DP (HIF1α)	hypoxia-induced gene transcription [6]	hypoxia-induced gene transcription ([6]; listed as Resveratrol)
resistant; also recorded: insensitive	4-hydroxytamoxifen [4HT]	Lack of effects	selectively inhibits ERRγ	–	–	–	–	–	–	–	–	–	–
–	CC/C(=C(/CC)c1ccc(O)cc1)c1ccc(O)cc1 [DES, diethylstilbestrol]	severely impaired; also recorded: attenuates HIF activity	antagonist of all three ERRs	clear reduction; also recorded: few blood vessels; also recorded: reduced	dramatic reduction	essentially stopped growing	about 3 times lighter	largely abolished	placental defects	largely abolished	stabilized normally	–	–
–	Oc1ccc(C=Cc2cc(O)cc(O)c2)cc1 [resveratrol]	–	capable of dissociating coactivator complexes from all three ERRs, albeit at higher concentrations than DES	–	–	–	–	–	–	–	–	manifested inhibitory activities	reduced hypoxic gene expression
